According to patent publication US6063784A, “Heteroaryloxyethylamines, method of preparation, application as medicine and pharmaceutical compositions containing them” (Societe de Conseils de Recherches et D'Applications …, priority 1996, dated 2000):

target: T1, serotonergic 5-HT1A receptors (Rattus norvegicus, UniProt P19327); test: Affinity for the 5-HT1A receptor: inhibition of [3H]8-OH-DPAT binding to rat cerebral cortex membranes; design: species or system rat (male Sprague Dawley); details: [3H]8-OH-DPAT 1 nM, 30 min at 25° C., Tris-HCl 50 mM, pH=7.4
T1 construct: from tissue; host or cells: cerebral cortex membranes of male Sprague Dawley rats
T1 sequence (P19327 1-422): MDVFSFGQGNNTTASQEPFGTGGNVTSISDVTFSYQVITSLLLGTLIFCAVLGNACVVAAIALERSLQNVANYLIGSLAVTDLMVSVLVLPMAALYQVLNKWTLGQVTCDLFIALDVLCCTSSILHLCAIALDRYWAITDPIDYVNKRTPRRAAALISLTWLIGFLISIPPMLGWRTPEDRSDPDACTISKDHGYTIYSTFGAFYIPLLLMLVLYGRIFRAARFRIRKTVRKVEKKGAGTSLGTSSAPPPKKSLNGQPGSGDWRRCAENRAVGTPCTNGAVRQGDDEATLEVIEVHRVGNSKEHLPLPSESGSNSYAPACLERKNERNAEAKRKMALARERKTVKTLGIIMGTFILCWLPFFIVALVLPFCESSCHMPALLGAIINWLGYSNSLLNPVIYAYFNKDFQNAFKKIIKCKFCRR
Experimental: The affinity of the compounds for serotonergic 5-HT1A receptors is determined by measuring the inhibition of [3H]8-hydroxy-2(di-n-propylamino)tetralin([3H]8-OH-DPAT) bound to the cerebral cortex of the rat, according to the method of Peroutka and his coworkers [(J. Neurochem., 47, 529 (1986)].
Cerebral cortices of male Sprague Dawley rats are homogenised in Tris-HCl 50 mM, pH=7.4 and centrifuged at 40,000 g for 10 min at 4° C. Pellets are resuspended in the same buffer and incubated for 10 min at 37° C., and the homogenised products are centrifuged again at 40,000 g for 10 min at 4° C.
Competitive inhibition tests of [3H]8-OH-DPAT binding are carried out three times with unlabelled competitors, with concentrations between 100 pM and 100 µM. Cerebral cortex membranes of rats (10 mg wet weight/ml) are incubated with [3H]8-OH-DPAT (1 nM) for 30 min at 25° C. in Tris-HCl 50 mM, pH=7.4 containing 4 mM of CaCl2, 10 µM of pargyline and 0.1% of ascorbic acid.
The bound [3H]8-OH-DPAT is separated from free [3H]8-OH-DPAT by immediate filtration by means of Whatman GF/B glass fibre filters using a Brandel cell recovery device. The filters are washed three times with the same buffer at 0-4° C. and their radioactivity is studied by means of a liquid scintillation spectrometer.
The specific binding is obtained by subtracting the binding determined in the presence of 1 M of 8-OH-DPAT from the total binding. The characteristics of the binding are analysed by iterative analysis of the non-linear regression by computer, using the Ligand program [Munson and Rodbard, Anal. Biochem., 107, 220 (1980)].

| SMILES | Ki [nM] |
| --- | --- |
| CC(C)(C)C(=O)NCCCCNCCOc1cccc2cccnc12 [Compound 1, N-[4-({2-(8-quinolyloxy)ethyl}amino)butyl]tert-butanamide] | 0.081 |
| CC(C)(C)CC(=O)NCCCCNCCOc1cccc2cccnc12 [Compound 2] | 0.12 |
| O=C(NCCCCNCCOc1cccc2cccnc12)C1CCCCC1 [Compound 3, N-[4-({2-(8-quinolyloxy)ethyl}amino)butyl]cyclohexanamide] | 0.15 |
| CC1(C(=O)NCCCCNCCOc2cccc3cccnc23)CCCCC1 [Compound 4] | 0.11 |
| O=C(NCCCCNCCOc1cccc2cccnc12)c1ccccc1 [Compound 5, N-[4-({2-(8-quinolyloxy)ethyl}amino)butyl]benzamide] | 0.055 |
| CC(C)(C)CC(=O)NCCCCNCCOc1ccc(Cl)c2cccnc12 [Compound 6] | 0.98 |
| Cc1ccc2cccc(OCCNCCCCNC(=O)CC(C)(C)C)c2n1 [Compound 7] | 0.35 |
| O=C(NCCCCNCCOc1cccc2nccnc12)c1ccccc1 [Compound 9, N-[4-({2-(5-quinoxalyloxy)ethyl}amino)butyl]benzamide] | 0.75 |
| O=C(CCCCNCCOc1cccc2cccnc12)NC1CCCCC1 [Compound 11, N-cyclohexyl-5-[(2-{8-quinolyloxy}ethyl)amino]pentanamide] | 0.072 |
| CC(C)(C)CNC(=O)CCCCNCCOc1cccc2cccnc12 [Compound 12, N-neopentyl-5-[(2-{8-quinolyloxy}ethyl)amino]pentanamide] | 0.09 |
| CC(C)(C)CNC(=O)CCCCNCCOc1cccc2nccnc12 [Compound 13, N-neopentyl-5-[(2-{5-quinoxalyloxy}ethyl)amino]pentanamide] | 0.48 |
